Test results reported in US20120302748A1, “TREATMENT OR PROPHYLAXIS OF PROLIFERATIVE CONDITIONS” (THE UNIVERSITY COURT OF THE UNIVERSITY OF DUNDEE, priority 2009, published 2012).
Read-outs that look alike come from different tables or passages of the source.

How the values were obtained:
[1] = tested on: UT-SCC-8; test: cells; settings: Homo sapiens, 72 h, read-out: cytotoxicity IC50 UT-SCC-8
[2] = tested on: UT-SCC-9; test: cells; settings: Homo sapiens, 72 h, read-out: cytotoxicity IC50 UT-SCC-9
[3] = tested on: UT-SCC-10; test: cells; settings: Homo sapiens, 72 h, read-out: cytotoxicity IC50 UT-SCC-10
[4] = tested on: UT-SCC-14 tumour cells; test: Cytotoxicity in primary HNSCC tumour cell line UT-SCC-14 (MTS assay); settings: Homo sapiens, 72 h, read-out: cytotoxicity IC50 UT-SCC-14
Protocol: A UT-SCC-14 tumour cell suspension at 2000 cells per well on a 96-well plate and if necessary add fresh media to give a total volume per well of 100 μl. The cells were allowed to attach for 4 h in an incubator. […] The final concentration of ethanol 0.2% was found not to effect the growth characteristics of the UT-SCC-14 cell line. The UT-SCC-14 cells were incubated with test compound for 72 h after which time all aspirated and replaced with 100 μl of fresh medium to compensate for the loss of medium due to evaporation. The cells were incubated with 20 μl of the MTS assay reagent for 1.5 h and the absorbance per well at 510 nm measured using a plate reader. The mean absorbance and standard deviation for each test compound concentration was calculated versus a series of controls including (a) cells plus medium, (b) cell plus medium containing ethanol 0.2%, (c) medium alone, and (d) medium containing ethanol 0.2% and a range of test compound concentrations from 0 to 100 μmol dm^−3.

[5] = target: T1, CYP1B1 (Homo sapiens, UniProt Q16678); test: CYP1B1 substrate prediction model (Gaussian Kernel weighted k-NN); settings: predicted versus actual
T1 sequence (Q16678 1-543): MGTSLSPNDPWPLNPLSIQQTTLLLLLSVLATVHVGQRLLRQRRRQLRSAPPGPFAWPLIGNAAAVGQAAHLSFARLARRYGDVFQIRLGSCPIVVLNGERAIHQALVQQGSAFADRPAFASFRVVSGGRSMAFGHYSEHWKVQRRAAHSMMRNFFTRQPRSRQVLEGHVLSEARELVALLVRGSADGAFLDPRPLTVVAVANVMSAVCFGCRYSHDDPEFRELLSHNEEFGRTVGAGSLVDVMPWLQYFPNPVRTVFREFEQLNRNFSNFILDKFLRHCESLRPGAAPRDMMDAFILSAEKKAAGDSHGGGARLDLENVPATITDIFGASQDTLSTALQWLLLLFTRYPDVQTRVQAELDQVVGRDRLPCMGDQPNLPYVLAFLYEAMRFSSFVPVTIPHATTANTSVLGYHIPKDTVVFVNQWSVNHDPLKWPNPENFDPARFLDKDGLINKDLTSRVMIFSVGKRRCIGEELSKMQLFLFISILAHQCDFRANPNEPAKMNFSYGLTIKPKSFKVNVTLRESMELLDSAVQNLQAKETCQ

[6] = tested on: UTSCC-14 primary human tumour xenograft; test: Anti-tumour activity in primary human tumour xenograft model; assay type: in vivo, nude mice; settings: for Tumour growth delay at 28 days: 2 cycles daily for 5 days/2 days off
Protocol: Primary UTSCC-14 cell lines 3×10^6 were implanted subcutaneously in the flank of nude mice. Mice were randomized to 10 animals per group when the tumour volume was 100 to 150 mm^3. SU046-04 was given intraperitoneally at 12, 25 and 50 mg/Kg in PBS versus versus vehicle alone for 2 cycles: daily for 5 days/2 days off. Tumour volume was measured every 4 days using calipers. […] Tumour growth delay at 28 days was 31% at 12 mg/Kg, 56% at 25 mg/Kg, and 90% at 50 mg/Kg with 4/10 complete responses.

[7] = tested on: CHO/CYP1B1 cells
[8] = tested on: CHO/CYP1B1 cells; test: cells; settings: Cricetulus griseus
[9] = in vitro; settings: Chinese hamster
[10] = tested on: CYP1A1; test: in vitro; settings: Chinese hamster
[11] = target: T1, CYP1B1; test: CYP1B1 substrate inhibition, P450-Glo Luciferin-CEE luminescent assay; settings: human
[12] = tested on: CHO cells
[13] = target: T2, human supersomal CYP1B1 plus reductase (Homo sapiens, UniProt Q16678); test: CYP1B1 substrate inhibition, P450-Glo Luciferin-CEE luminescent assay; settings: final concentration of 0.5 mmol dm^−3; triplicate, mean ± standard deviation
T2 sequence (Q16678 1-543): T1 sequence (Q16678 1-543)

[14] = target: T3, CYP1A1 (Homo sapiens, UniProt P04798); settings: inhibitor at 10 nmol dm^−3
T3 sequence (P04798 1-512): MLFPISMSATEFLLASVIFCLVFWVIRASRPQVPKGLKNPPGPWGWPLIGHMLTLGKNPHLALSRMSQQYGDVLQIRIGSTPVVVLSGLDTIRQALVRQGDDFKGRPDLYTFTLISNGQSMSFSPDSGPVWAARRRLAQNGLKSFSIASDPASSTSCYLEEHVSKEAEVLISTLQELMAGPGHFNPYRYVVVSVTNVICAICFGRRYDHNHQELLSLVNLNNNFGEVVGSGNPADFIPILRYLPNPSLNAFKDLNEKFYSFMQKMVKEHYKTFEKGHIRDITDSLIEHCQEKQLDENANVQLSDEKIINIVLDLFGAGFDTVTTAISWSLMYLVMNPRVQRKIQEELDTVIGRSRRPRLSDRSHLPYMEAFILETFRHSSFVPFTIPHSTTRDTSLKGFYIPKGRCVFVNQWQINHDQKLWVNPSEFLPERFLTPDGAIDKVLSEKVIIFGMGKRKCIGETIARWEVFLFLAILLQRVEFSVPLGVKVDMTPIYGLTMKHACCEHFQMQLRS

[15] = target: T3, CYP1A1; settings: inhibitor at 10 nmol dm^−3; remark: listed apart in the source

Work on Cc1cc(=O)oc2cc(OCc3c4ccccc4cc4ccccc34)ccc12 [SU06-02, 7-(anthracen-9-ylmethoxy)-4-methyl-2H-chromen-2-one] yielded a melting point of 216 to 218 °C.

With CC[C@@]1(O)C(=O)OCc2c1cc1n(c2=O)Cc2cc3cc(OCc4cc5cc(OC)cc(OC)c5o4)ccc3nc2-1 [SU037-04] the IC50 [1] was 560 ± 40 nM, the IC50 [2] was 220 ± 80 nM and the IC50 [3] was 210 ± 40 nM. For the same compound, the IC50 [4] was 120 ± 70 nM.

With COc1cc(OC)c2oc(COP(=O)(NCCBr)NCCBr)cc2c1 [SU046-04] the “% CYP1B1 substrate inhibition accuracy” value [5] was 96%, the “Tumour growth delay at 28 days” value ([6]; 12 mg/Kg intraperitoneally) was 31% and the “Tumour growth delay at 28 days” value ([6]; 25 mg/Kg intraperitoneally) was 56%. The complete responses ([6]; 50 mg/Kg intraperitoneally) was 4/10, the “Tumour growth delay at 28 days” value ([6]; 50 mg/Kg intraperitoneally) was 90% and the “adverse effects / body weight loss” value ([6]; after highest exposure 250 mg/Kg) was “No observed adverse effects or significant body weight loss”. The “inhibition of tumour growth versus vehicle” value ([6]; all three treatment arms 12, 25 and 50 mg/Kg) was “significant inhibition of tumour growth”, the “IC50 ratio 72 h (CHO / CHO/CYP1B1)” value [7] was 5075 and the IC50 ([8]; 72 h, read-out: Cytotoxicity (IC50) CHO/CYP1B1 72 h) was 4 ± 2 nM. It also gave an IC50 ([8]; 96 h, read-out: Cytotoxicity (IC50) CHO/CYP1B1 96 h) of 3 ± 1 nM, an IC50 ([9]; Cytotoxicity (IC50) CHO 72 h) of 20300 ± 1200 nM and an IC50 ([9]; Cytotoxicity (IC50) CHO 96 h) of 16200 ± 200 nM. For the same compound, the IC50 ([9]; cytotoxicity IC50 in wild-type CHO cells) was no less than 10000 nM, the IC50 [10] was 20300 ± 2100 nM and the IC50 [4] was 20 ± 10 nM. For the same compound, the inhibition at 0.5 mmol dm^−3 [11] was 96.45 ± 0.22%.

For O=P1(N(CCCl)CCCl)NCCCO1 (stereo not drawn) [cyclophosphamide], the “toxicity in the CHO cytotoxicity assay” value [12] was “non-toxic”.

With C[C@]12CC[C@@H]3c4ccc(O)cc4CC[C@H]3[C@@H]1CC[C@@H]2O [β-estradiol, reference compound] the “% CYP1B1 substrate inhibition accuracy” value [5] was 95% and the “% CYP1B1 substrate inhibition actual” value [13] was 72.34 ± 0.45%.

For tetramethoxystilbene, the “% CYP1B1 substrate inhibition accuracy” value [5] was 98%, the “Specific activity CHO/CYP1A1 ethoxyresorufin” value [14] was 26 ± 4 pmol resorufin or luciferin min^−1 mg protein^−1 and the “Specific activity CHO/CYP1A1 Luciferin-CEE” value [15] was 20 ± 5 pmol resorufin or luciferin min^−1 mg protein^−1.
